Experimental data: patent publication US12371428B2 (Exelixis, Inc., priority 2019, dated 2025)
Like-named read-outs stand apart in the source and are kept apart here.

Columns and labels:
Assay type in all cases: cell-based
[1] = target: Met (phospho-Met, HGF-stimulated PC-3 prostate cancer cells) (Homo sapiens (Human), UniProt P08581); experiment: Met autophosphorylation ELISA in PC-3 cells (Example F); settings: cellular activity, read-out: c-Met IC50
Protocol: PC-3 prostate cancer cells (ATCC #CRL-1435) were seeded at 4×10^4 cells/well onto 24-well plates (Greiner #662165), in DMEM (Thermo Fisher #11995-040) containing 10% FBS (Thermo Fisher #26140-079), 1% MEM NEAA (Thermo Fisher #11140-050), 1% GlutaMax (Thermo Fisher #35050-061), and 1% Penicillin Streptomycin (Thermo Fisher #15140-122). PC-3 cells were incubated at 37° C., 5% CO2 for 24 h and then starved for 3 h in serum-free medium. Test compounds were serially diluted to produce an 8-point dose curve in fresh serum-free medium to a final concentration of 0.3% DMSO (vehicle) and added to the cells and incubated for 1 h. Cells were then stimulated with 100 ng/mL recombinant human HGF (R&D Systems #294-HG-250) for 10 min, washed with cold PBS, and immediately lysed with […] of cold 1× lysis buffer [20 mM Tris, 137 mM sodium chloride, 2 mM EDTA, 10% glycerol, 1% NP-40 alternative, 1 mM activated sodium orthovanadate, 1 mM PefaBloc SC (Sigma-Aldrich #11429868001), protease/phosphatase inhibitor tablet (Thermo Fisher #A32959)]. Lysates were clarified by centrifugation and 100 μL/well added into the PathScan phospho-Met (panTyr) Sandwich ELISA (Cell Signaling Technology #7333). Assay was performed according to manufacturer's instructions. Positive control wells (100% activity) contained HGF-stimulated, DMSO-treated cell lysates. Negative control wells (0% activity) contained HGF-stimulated, reference inhibitor-treated cell lysates. IC50 values were calculated by nonlinear regression analysis using a 4-parameter logistic curve fit in ActivityBase XE (IDBS).

[2] = target: KDR (phospho-KDR, VEGF165-stimulated HUVEC cells) (Homo sapiens (Human), UniProt P35968); experiment: KDR autophosphorylation ELISA in HUVEC cells (Example G); settings: cellular activity
KDR (phospho-KDR, VEGF165-stimulated HUVEC cells), sequence (P35968 20-1356): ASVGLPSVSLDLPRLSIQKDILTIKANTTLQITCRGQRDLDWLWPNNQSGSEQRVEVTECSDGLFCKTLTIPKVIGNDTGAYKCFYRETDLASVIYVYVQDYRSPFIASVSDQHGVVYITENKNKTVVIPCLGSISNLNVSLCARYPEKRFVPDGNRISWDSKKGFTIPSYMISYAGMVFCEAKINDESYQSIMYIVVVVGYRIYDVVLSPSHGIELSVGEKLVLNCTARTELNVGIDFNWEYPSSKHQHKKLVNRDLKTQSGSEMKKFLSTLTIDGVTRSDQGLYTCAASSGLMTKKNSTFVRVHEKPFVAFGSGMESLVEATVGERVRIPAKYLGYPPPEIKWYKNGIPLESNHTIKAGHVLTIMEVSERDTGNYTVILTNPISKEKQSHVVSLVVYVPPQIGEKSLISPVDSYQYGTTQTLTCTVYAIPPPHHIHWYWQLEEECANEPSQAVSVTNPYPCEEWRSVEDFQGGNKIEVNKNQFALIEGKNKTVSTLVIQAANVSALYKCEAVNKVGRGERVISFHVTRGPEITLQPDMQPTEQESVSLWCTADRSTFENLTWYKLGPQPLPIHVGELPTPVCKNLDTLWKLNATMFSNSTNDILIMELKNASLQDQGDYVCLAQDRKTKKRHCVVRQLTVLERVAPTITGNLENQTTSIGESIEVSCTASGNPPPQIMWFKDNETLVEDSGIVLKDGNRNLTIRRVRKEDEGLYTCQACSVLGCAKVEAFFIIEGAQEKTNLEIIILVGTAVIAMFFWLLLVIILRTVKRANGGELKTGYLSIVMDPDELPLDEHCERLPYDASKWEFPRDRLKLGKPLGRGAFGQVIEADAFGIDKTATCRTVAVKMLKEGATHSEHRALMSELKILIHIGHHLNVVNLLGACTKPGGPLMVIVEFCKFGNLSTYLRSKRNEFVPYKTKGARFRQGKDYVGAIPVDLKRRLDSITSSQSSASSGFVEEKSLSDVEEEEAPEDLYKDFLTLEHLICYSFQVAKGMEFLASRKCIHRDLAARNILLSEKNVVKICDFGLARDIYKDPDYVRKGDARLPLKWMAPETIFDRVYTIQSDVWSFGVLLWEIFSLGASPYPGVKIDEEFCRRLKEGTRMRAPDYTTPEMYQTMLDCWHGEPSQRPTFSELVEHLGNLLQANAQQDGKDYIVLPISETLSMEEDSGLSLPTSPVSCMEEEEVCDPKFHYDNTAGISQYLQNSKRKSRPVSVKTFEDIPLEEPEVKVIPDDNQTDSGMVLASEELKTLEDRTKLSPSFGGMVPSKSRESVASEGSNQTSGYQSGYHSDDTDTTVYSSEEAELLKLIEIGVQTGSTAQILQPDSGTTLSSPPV
Protocol: Human umbilical vein endothelial cells or HUVEC (Lonza #C2519A) were seeded at 2×10^4 cells/well onto 96-well plates (Corning #3904), in EGM-2 growth medium (Lonza #CC-3162) containing 1% Penicillin Streptomycin (Thermo Fisher #15140-122). HUVEC cells were incubated at 37° C., 5% CO2 for 24 h and then starved for 24 h in serum-free EBM-2 basal medium (Lonza #CC-3156) containing 1% Penicillin Streptomycin. Test compounds were serially diluted to produce an 8-point dose curve in fresh serum-free medium to a final concentration of 0.3% DMSO (vehicle) and added to the cells and incubated for 1 h. Cells were then stimulated with 100 ng/mL recombinant human VEGF165 (R&D Systems #293-VE-500) for 5 min, washed with cold PBS, and immediately lysed with […] of cold 1× lysis buffer [20 mM Tris, 137 mM sodium chloride, 2 mM EDTA, 10% glycerol, 1% NP-40 alternative, 1 mM activated sodium orthovanadate, 1 mM PefaBloc SC (Sigma-Aldrich #11429868001), protease/phosphatase inhibitor tablet (Thermo Fisher #A32959)]. Lysates were collected and 100 μL/well added into the human phospho-KDR DuoSet IC ELISA (R&D Systems #DYC1766-2). Assay was performed according to manufacturer's instructions and sample phospho-KDR concentrations were extrapolated using human phospho-KDR control (R&D Systems #841421) as a standard. Positive control wells (100% activity) contained VEGF165-stimulated, DMSO-treated cell lysates. Negative control wells (0% activity) contained non-stimulated cell lysates. IC50 values were calculated by nonlinear regression analysis using a 4-parameter logistic curve fit in ActivityBase XE (IDBS).

[3] = target: Mer (phospho-Mer, MERTK-transfected 293A cells) (Homo sapiens (Human), UniProt Q12866); experiment: Mer autophosphorylation ELISA in transient transfected 293A cells (Example H); settings: cellular activity
Mer (phospho-Mer, MERTK-transfected 293A cells), sequence (Q12866 21-999): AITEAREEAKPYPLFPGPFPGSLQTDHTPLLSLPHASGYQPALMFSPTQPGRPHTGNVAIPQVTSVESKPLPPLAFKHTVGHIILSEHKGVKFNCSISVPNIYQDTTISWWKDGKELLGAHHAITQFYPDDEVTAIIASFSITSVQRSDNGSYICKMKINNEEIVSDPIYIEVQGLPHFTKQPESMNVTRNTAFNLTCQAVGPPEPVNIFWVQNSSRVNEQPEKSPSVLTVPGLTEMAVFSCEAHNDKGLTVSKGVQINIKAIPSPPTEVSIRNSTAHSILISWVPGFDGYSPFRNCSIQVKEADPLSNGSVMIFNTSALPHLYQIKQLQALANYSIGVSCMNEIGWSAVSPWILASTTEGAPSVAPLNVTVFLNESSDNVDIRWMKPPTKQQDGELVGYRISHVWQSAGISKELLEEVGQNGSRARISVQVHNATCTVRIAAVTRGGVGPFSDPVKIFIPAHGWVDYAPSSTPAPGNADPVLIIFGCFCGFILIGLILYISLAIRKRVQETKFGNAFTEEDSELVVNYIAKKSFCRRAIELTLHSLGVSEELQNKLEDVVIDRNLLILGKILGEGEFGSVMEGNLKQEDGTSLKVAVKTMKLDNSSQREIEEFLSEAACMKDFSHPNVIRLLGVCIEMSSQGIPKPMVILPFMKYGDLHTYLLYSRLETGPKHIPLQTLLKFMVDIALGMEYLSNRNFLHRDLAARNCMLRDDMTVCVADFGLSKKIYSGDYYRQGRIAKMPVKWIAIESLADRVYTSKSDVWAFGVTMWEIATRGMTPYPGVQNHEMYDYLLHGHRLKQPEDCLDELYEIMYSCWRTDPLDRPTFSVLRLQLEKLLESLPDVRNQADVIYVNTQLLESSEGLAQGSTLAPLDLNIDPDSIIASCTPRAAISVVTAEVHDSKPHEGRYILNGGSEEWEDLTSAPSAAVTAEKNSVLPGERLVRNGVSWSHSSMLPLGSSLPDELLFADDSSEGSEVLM
Protocol: 293A cells (Thermo Fisher #R70507) were seeded at 1.5×10^6 cells/well onto 100 mm dish (Greiner #664169), in DMEM (Thermo Fisher #11995-040) containing 10% FBS (Thermo Fisher #26140-079), 1% MEM NEAA (Thermo Fisher #11140-050), 1% GlutaMax (Thermo Fisher #35050-061), and 1% Penicillin Streptomycin (Thermo Fisher #15140-122). 293A cells were incubated at 37° C., 5% CO2 for 24 h and then transfected with […] MERTK DNA (Genecopoeia #EX-Z8208-M02) using TransIT LT1 transfection reagent (Mirus-Bio #MIR2305). After 24 h incubation, the transfected 293A cells were seeded at 1×10^5 cells/well onto 96-well plates (Corning #3904) in DMEM growth medium overnight. Test compounds were serially diluted to produce an 8-point dose curve in fresh serum-free medium to a final concentration of 0.3% DMSO (vehicle) and added to the cells and incubated for 1 h. Cells were then immediately lysed with 150 μL of cold 1× lysis buffer [20 mM Tris, 137 mM sodium chloride, 2 mM EDTA, 10% glycerol, 1% NP-40 alternative, 1 mM activated sodium orthovanadate, 1 mM PefaBloc SC (Sigma-Aldrich #11429868001), protease/phosphatase inhibitor tablet (Thermo Fisher #A32959)]. Lysates were clarified by centrifugation and 50 µL/well added in to the human phospho-Mer DuoSet IC ELISA (R&D Systems #DYC2579-2). Assay was performed according to manufacturer's instructions and sample phospho-Mer concentrations were extrapolated using human phospho-Mer control (R&D Systems #841793) as a standard. Positive control wells (100% activity) contained DMSO-treated cell lysates. Negative control wells (0% activity) contained reference inhibitor-treated cell lysates. IC50 values were calculated by nonlinear regression analysis using a 4-parameter logistic curve fit in ActivityBase XE (JDBS).

[4] = Met autophosphorylation ELISA in PC-3 cells
[5] = KDR autophosphorylation ELISA in HUVEC cells
[6] = Mer autophosphorylation ELISA in transient transfected 293A cells

Met (phospho-Met, HGF-stimulated PC-3 prostate cancer cells), sequence (P08581 25-1390): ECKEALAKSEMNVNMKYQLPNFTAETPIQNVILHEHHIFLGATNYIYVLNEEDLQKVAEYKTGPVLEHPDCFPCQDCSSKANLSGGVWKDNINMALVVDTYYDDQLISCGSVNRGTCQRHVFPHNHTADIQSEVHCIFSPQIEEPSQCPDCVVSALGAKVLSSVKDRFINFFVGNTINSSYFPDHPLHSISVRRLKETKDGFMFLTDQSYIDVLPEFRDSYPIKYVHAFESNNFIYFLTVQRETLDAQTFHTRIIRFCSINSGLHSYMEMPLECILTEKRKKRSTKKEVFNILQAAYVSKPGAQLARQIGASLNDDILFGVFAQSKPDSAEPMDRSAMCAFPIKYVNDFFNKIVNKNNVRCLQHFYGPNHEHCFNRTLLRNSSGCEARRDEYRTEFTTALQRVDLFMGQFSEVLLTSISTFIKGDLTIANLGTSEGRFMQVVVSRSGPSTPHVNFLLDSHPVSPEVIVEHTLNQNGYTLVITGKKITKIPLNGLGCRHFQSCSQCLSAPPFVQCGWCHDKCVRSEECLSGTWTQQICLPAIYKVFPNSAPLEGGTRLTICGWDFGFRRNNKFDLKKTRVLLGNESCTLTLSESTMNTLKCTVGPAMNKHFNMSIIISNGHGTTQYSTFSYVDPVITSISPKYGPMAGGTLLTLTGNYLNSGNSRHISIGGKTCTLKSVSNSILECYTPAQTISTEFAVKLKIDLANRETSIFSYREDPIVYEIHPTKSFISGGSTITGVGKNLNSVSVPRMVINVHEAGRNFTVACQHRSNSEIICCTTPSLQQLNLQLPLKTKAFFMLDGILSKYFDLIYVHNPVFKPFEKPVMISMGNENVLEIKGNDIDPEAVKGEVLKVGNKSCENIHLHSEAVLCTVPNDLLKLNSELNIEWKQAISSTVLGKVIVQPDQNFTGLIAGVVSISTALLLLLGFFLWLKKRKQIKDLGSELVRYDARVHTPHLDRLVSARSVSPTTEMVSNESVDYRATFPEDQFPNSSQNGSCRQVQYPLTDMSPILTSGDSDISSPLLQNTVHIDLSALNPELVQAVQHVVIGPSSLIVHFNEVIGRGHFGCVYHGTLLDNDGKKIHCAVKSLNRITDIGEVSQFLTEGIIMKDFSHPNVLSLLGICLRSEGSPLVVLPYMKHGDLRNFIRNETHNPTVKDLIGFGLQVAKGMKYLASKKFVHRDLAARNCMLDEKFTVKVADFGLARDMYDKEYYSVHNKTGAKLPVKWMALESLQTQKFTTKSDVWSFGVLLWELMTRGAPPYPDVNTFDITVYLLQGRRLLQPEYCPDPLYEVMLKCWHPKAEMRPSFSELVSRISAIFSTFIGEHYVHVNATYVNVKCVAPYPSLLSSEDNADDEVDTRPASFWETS

Structure (SMILES)	IC50 [1, 4] [nM]	IC50 [2, 5] [nM]	IC50 [3, 6] [nM]	IC50 ([1]; PC-3 cells) [nM]	IC50 ([2]; HUVEC cells) [nM]	IC50 ([3]; transfected 293A cells) [nM]
CCOCc1nc(C)c(-c2ccc(F)cc2C)c(O)c1C(=O)Nc1ccc(Oc2ccnc3cc(OC)c(OC)nc23)cc1 [Compound 780, N-[4-[(6,7-dimethoxy-1,5-naphthyridin-4-yl)oxy]phenyl]-2-(ethoxymethyl)-5-(4-fluoro-2-methylphenyl)-4-hydroxy-6-methylpyridine-3-carboxamide]	< 100	100 to 300	< 100			
CCOCc1nc(C)c(-c2ccc(F)cc2C)c(O)c1C(=O)Nc1ccc(Oc2ccnc3cc(OC)cnc23)cc1 [Compound 781, 2-(ethoxymethyl)-5-(4-fluoro-2-methylphenyl)-4-hydroxy-N-[4-[(7-methoxy-1,5-naphthyridin-4-yl)oxy]phenyl]-6-methylpyridine-3-carboxamide]	< 100	> 300	< 100			
COc1cc2nccc(Oc3ccc(NC(=O)c4c(C)n(CC(F)F)cc(-c5ccc(F)cc5C)c4=O)cc3F)c2nc1OC [Compound 786, 1-(2,2-difluoroethyl)-N-[4-[(6,7-dimethoxy-1,5-naphthyridin-4-yl)oxy]-3-fluorophenyl]-5-(4-fluoro-2-methylphenyl)-2-methyl-4-oxopyridine-3-carboxamide]	< 100	< 100	< 100			
COc1cc2nccc(Oc3ccc(NC(=O)c4cc(C(C)O)c(C)n(-c5ccc(F)cc5)c4=O)cc3F)c2nc1OC (stereo not drawn) [Compound 787, N-[4-[(6,7-dimethoxy-1,5-naphthyridin-4-yl)oxy]-3-fluorophenyl]-1-(4-fluorophenyl)-5-(1-hydroxyethyl)-6-methyl-2-oxopyridine-3-carboxamide]	< 100	> 300	< 100			
COc1cc2nccc(Oc3ccc(NC(=O)c4c(C)n(CC(F)F)cc(-c5ccc(F)cc5)c4=O)cc3)c2nc1OC [Compound 788, 1-(2,2-difluoroethyl)-N-[4-[(6,7-dimethoxy-1,5-naphthyridin-4-yl)oxy]phenyl]-5-(4-fluorophenyl)-2-methyl-4-oxopyridine-3-carboxamide]	< 100	100 to 300	< 100			
COc1cc2nccc(Oc3ccc(NC(=O)c4c(C)n(CC(F)(F)F)cc(-c5ccc(F)cc5)c4=O)cc3)c2nc1OC [Compound 789, N-[4-[(6,7-dimethoxy-1,5-naphthyridin-4-yl)oxy]phenyl]-5-(4-fluorophenyl)-2-methyl-4-oxo-1-(2,2,2-trifluoroethyl)pyridine-3-carboxamide]	< 100	> 300	< 100			
COc1cnc2c(Oc3ccc(NC(=O)c4c(C)n(CC(F)(F)F)cc(-c5ccc(F)cc5)c4=O)cc3F)ccnc2c1 [Compound 790, N-[3-fluoro-4-[(7-methoxy-1,5-naphthyridin-4-yl)oxy]phenyl]-5-(4-fluorophenyl)-2-methyl-4-oxo-1-(2,2,2-trifluoroethyl)pyridine-3-carboxamide]	< 100	> 300	< 100			
COc1cc2nccc(Oc3ccc(NC(=O)c4c(C)n(C)c(C)c(-c5ccc(F)cc5C)c4=O)cc3)c2nc1OC [Compound 791, N-[4-[(6,7-dimethoxy-1,5-naphthyridin-4-yl)oxy]phenyl]-5-(4-fluoro-2-methylphenyl)-1,2,6-trimethyl-4-oxopyridine-3-carboxamide]	< 100	> 300	< 100			
COc1cnc2c(Oc3ccc(NC(=O)c4c(C)n(CC(F)F)cc(-c5ccc(F)c(F)c5)c4=O)cc3F)ccnc2c1 [Compound 817, 1-(2,2-difluoroethyl)-5-(3,4-difluorophenyl)-N-[3-fluoro-4-[(7-methoxy-1,5-naphthyridin-4-yl)oxy]phenyl]-2-methyl-4-oxopyridine-3-carboxamide]				< 100	> 300	< 100
COc1cnc2c(Oc3ccc(NC(=O)c4c(C)n(C)c(C)c(-c5ccc(F)cc5OC)c4=O)cc3F)ccnc2c1 [Compound 818, N-[3-fluoro-4-[(7-methoxy-1,5-naphthyridin-4-yl)oxy]phenyl]-5-(4-fluoro-2-methoxyphenyl)-1,2,6-trimethyl-4-oxopyridine-3-carboxamide]				< 100	> 300	< 100
COc1cnc2c(Oc3ccc(NC(=O)c4c(C)n(C)c(C)c(-c5ccc(F)c(C)c5)c4=O)cc3F)ccnc2c1 [Compound 819, N-[3-fluoro-4-[(7-methoxy-1,5-naphthyridin-4-yl)oxy]phenyl]-5-(4-fluoro-3-methylphenyl)-1,2,6-trimethyl-4-oxopyridine-3-carboxamide]				< 100	> 300	< 100
COc1cnc2c(Oc3ccc(NC(=O)c4c(C)n(C)c(C)c(-c5ccc(F)c(F)c5)c4=O)cc3F)ccnc2c1 [Compound 820, 5-(3,4-difluorophenyl)-N-[3-fluoro-4-[(7-methoxy-1,5-naphthyridin-4-yl)oxy]phenyl]-1,2,6-trimethyl-4-oxopyridine-3-carboxamide]				< 100	> 300	< 100
COc1cc2nccc(Oc3ccc(NC(=O)c4c(C)n(C)c(C)c(-c5ccc(F)c(F)c5)c4=O)cc3F)c2nc1OC [Compound 822, 5-(3,4-difluorophenyl)-N-[4-[(6,7-dimethoxy-1,5-naphthyridin-4-yl)oxy]-3-fluorophenyl]-1,2,6-trimethyl-4-oxopyridine-3-carboxamide]				< 100	> 300	< 100
COc1cc2nccc(Oc3ccc(NC(=O)c4c(C)n(C)c(C)c(-c5ccc(F)cc5F)c4=O)cc3F)c2nc1OC [Compound 823, 5-(2,4-difluorophenyl)-N-[4-[(6,7-dimethoxy-1,5-naphthyridin-4-yl)oxy]-3-fluorophenyl]-1,2,6-trimethyl-4-oxopyridine-3-carboxamide]				< 100	> 300	< 100
